Test results reported in patent US20080200448A1, “New Pyridine Analogues VIII 518” (ASTRAZENECA AB, priority 2007, published 2008).
Read-outs that look alike come from different tables or passages of the source.

Target: T1, P2Y12 receptor (Homo sapiens, UniProt Q9H244)
T1 construct: expressed in transfected cells; host or cells: CHO cells (membrane preparation)
Experiment: Functional inhibition of 2-Me-S-ADP induced P2Y12 signalling (35S-GTPγS binding, cell membranes)
Format: biochemical
How it was run: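 Membranes (5 μg) from P2Y12-transfected CHO cells in pH 7.4 HEPES buffer with 10 μM GDP and saponin were stimulated with an EC80 of 2-methyl-thio-ADP plus compound and ^35S-GTPγS for 45 min at 30° C. Filter-retained ^35S-GTPγS was counted, normalised between agonist and no-agonist activity, and IC50 taken from a four-parameter fit.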

[1] = 35S-GTPγS assay, membranes, EC80 concentration of 2-methyl-thio-adenosine diphosphate, 30° C. for 45 min, read-out: GTPγS (IC50 μM)

T1 sequence (Q9H244 whole entry): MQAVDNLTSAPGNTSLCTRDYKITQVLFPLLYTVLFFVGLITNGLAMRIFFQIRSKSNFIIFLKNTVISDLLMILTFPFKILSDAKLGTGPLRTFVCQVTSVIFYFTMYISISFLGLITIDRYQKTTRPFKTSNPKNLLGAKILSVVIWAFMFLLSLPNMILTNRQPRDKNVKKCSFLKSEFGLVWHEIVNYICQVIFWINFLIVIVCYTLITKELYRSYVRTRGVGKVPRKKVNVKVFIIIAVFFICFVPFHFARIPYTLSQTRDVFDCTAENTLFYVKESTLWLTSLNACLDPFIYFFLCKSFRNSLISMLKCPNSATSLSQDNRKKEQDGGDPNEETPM

Compound | IC50 [1] [µM] | IC50 (functional inhibition of 2-Me-S-ADP induced P2Y12 signalling, membranes from P2Y12 transfected CHO-cells, EC80 concentration of agonist, read-out: IC50) [µM]
CCOC(=O)c1cc(C#N)c(N2CCC(C(=O)NS(=O)(=O)Cc3ccc([Si](C)(C)C)cc3)CC2)nc1CN1CCCC1=O [Example 100, Ethyl 5-cyano-2-[(2-oxopyrrolidin-1-yl)methyl]-6-[4-({[4-(trimethylsilyl)benzyl]sulfonyl}carbamoyl)piperidin-1-yl]nicotinate] | 0.138 | 
Cc1ccc(CS(=O)(=O)NC(=O)C2CCN(c3nc(CN4CCCC4=O)c(C(=O)OC(C)C)cc3C#N)CC2)cc1 [Example 45, Isopropyl 5-cyano-6-(4-{[(4-methylbenzyl)sulfonyl]carbamoyl}piperidin-1-yl)-2-[(2-oxopyrrolidin-1-yl)methyl]nicotinate] | 0.019 | 
CCOC(=O)c1cc(C#N)c(N2CCC(C(=O)NS(=O)(=O)Cc3ccccc3)CC2)nc1COC(=O)CO [Example 16, Ethyl 6-{4-[(benzylsulfonyl)carbamoyl]piperidin-1-yl}-5-cyano-2-[(glycoloyloxy)methyl]nicotinate] | 0.015 | 
CCOC(=O)CCc1nc(N2CCC(C(=O)NS(=O)(=O)Cc3ccccc3)CC2)c(C#N)cc1C(=O)OCC [Example 107, Ethyl 6-{4-[(benzylsulfonyl)carbamoyl]piperidin-1-yl}-5-cyano-2-(3-ethoxy-3-oxopropyl)nicotinate] | 0.056 | 
CC(C)OC(=O)c1cc(C#N)c(N2CCC(C(=O)NS(=O)(=O)N(C)c3ccc(F)cc3)CC2)nc1CN1CCCC1=O [Example 79, Isopropyl 5-cyano-6-[4-({[(4-fluorophenyl)(methyl)amino]sulfonyl}carbamoyl)piperidin-1-yl]-2-[(2-oxopyrrolidin-1′-yl)methyl]nicotinate] | 0.014 | 
CCOC(=O)c1cc(C#N)c(N2CCC(C(=O)NS(=O)(=O)Cc3ccc(F)cc3F)CC2)nc1CN1CCCCC1=O [Example 67, Ethyl 5-cyano-6-(4-{[(2,4-difluorobenzyl)sulfonyl]carbamoyl}piperidin-1-yl)-2-[(2-oxopiperidin-1-yl)methyl]nicotinate] | 0.02 | 
CC(C)OC(=O)c1cc(C#N)c(N2CCC(C(=O)NS(=O)(=O)CC3CCCC3)CC2)nc1CN1CCCC1=O [Example 47, Isopropyl 5-cyano-6-(4-{[(cyclopentylmethyl)sulfonyl]carbamoyl}piperidin-1-yl)-2-[(2-oxopyrrolidin-1-yl)methyl]nicotinate] | 0.065 | 
CCOC(=O)c1cc(Cl)c(N2CCC(C(=O)NS(=O)(=O)Cc3ccc(OC)cc3)CC2)nc1CN1CCCC1=O [Example 88, Ethyl 5-chloro-6-(4-{[(4-methoxybenzyl)sulfonyl]carbamoyl}piperidin-1-yl)-2-[(2-oxopyrrolidin-1-yl)methyl]nicotinate] | 0.081 | 

More lines, in order of falling IC50 [1], values ahead:

IC50 [1] [µM] | IC50 (functional inhibition of 2-Me-S-ADP induced P2Y12 signalling, membranes from P2Y12 transfected CHO-cells, EC80 concentration of agonist, read-out: IC50) [µM] | Compound
0.282 | 0.28 | CCOC(=O)c1cc(C#N)c(N2CCC(C(=O)NS(=O)(=O)Cc3ccccc3)CC2)nc1CN(C)C [Example 4, Ethyl 6-{4-[(benzylsulfonyl)carbamoyl]piperidin-1-yl}-5-cyano-2-[(dimethylamino)methyl]nicotinate]
0.164 |  | CCOC(=O)c1cc(C#N)c(N2CCC(C(=O)NS(=O)(=O)CC3CCC(C)CC3)CC2)nc1CN1CCCCC1=O (centres unmarked) [Example 58, Ethyl 5-cyano-6-[4-({[(4-methylcyclohexyl)methyl]sulfonyl}carbamoyl)piperidin-1-yl]-2-[(2-oxopiperidin-1-yl)methyl]nicotinate]
0.106 |  | CCOC(=O)c1cc(C#N)c(N2CC(C(=O)NS(=O)(=O)Cc3ccccc3)C2)nc1CSCC [Example 30, Ethyl 6-{3-[(benzylsulfonyl)carbamoyl]azetidin-1-yl}-5-cyano-2-[(ethylthio)methyl]nicotinate]
0.065 |  | CCOC(=O)c1cc(C#N)c(N2CCC(C(=O)NS(=O)(=O)Cc3ccccc3)CC2)nc1OCC(=O)N(C)C [Example 125, Ethyl 6-{4-[(benzylsulfonyl)carbamoyl]piperidin-1-yl}-5-cyano-2-[2-(dimethylamino)-2-oxoethoxy]nicotinate]
0.035 |  | CCOC(=O)c1cc(C#N)c(N2CCC(C(=O)NS(=O)(=O)Cc3ccccc3)CC2)nc1CSCC(=O)O [Example 115, ({[6-{4-[(Benzylsulfonyl)carbamoyl]piperidin-1-yl}-5-cyano-3-(ethoxycarbonyl)pyridin-2-yl]methyl}thio)acetic acid]
